Source: PubChem BioAssay AID1033 (Sanford-Burnham Center for Chemical Genomics, 2008)
The source made the active and inactive calls. The rule behind the calls is not given here.

Target: Chaperone protein DnaK (Escherichia coli (strain K12)) (UniProt P0A6Y8)
Test: E. coli DnaK SBD ligand binding – biophysical, NMR, chaperone (AID 1033)
Details: Purified DnaK SBD

Chain of Chaperone protein DnaK (Escherichia coli (strain K12)) (P0A6Y8 whole entry, looked up): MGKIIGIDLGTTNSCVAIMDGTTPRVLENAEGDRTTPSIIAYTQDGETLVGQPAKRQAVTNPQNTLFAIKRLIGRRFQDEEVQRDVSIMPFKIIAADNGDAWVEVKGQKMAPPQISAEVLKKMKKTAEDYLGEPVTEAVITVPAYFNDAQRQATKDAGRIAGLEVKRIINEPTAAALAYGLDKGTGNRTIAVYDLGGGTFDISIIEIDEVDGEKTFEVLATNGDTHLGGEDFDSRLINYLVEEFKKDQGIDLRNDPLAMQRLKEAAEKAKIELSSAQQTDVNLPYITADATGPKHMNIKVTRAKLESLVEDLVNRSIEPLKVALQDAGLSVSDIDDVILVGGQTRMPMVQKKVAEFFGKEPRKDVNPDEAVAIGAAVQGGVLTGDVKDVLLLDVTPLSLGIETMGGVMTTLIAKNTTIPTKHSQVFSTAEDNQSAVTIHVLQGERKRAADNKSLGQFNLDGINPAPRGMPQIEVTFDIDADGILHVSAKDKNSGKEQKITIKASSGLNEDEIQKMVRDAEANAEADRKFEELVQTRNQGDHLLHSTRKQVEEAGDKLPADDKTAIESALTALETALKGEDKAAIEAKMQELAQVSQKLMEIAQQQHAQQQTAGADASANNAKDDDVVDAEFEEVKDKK

Compound	Kd
CNC(=O)C1=NCCCc2cc(OC)c(OC)cc21	> 4 mM (inactive)
c1ccc(SCc2nc(-c3ccccn3)no2)cc1	> 4 mM (inactive)
CC(=O)Nc1ccc2c(c1)CCCC2=O	> 4 mM (inactive)
COc1c2c(cc3c1OCO3)CCN(C)C2	> 4 mM (inactive)
COc1ccc(C(=O)NCC(=O)O)cc1	> 4 mM (inactive)
NC(=O)N1CCc2ccccc21	> 4 mM (inactive)
C=CCSCC=C	> 4 mM (inactive)
O=C1NC(=Nc2ccccc2Cl)SC1(CO)CO	> 4 mM (inactive)
O=c1c2ccccc2nc2n1CCC2O (configuration not stated)	> 4 mM (inactive)
Cn1cnnc1Sc1ncnc(N)c1[N+](=O)[O-]	> 4 mM (inactive)
O=CN1CCN(C(=O)c2ccccc2F)CC1	> 4 mM (inactive)
Cc1nc2ccc(F)cc2cc1C(=O)NCc1ccco1	> 4 mM (inactive)
COc1ccc(-c2cn[nH]c2N)c(OC)c1	> 4 mM (inactive)
Cc1ccc(-n2cnnn2)c2cccnc12	> 4 mM (inactive)
O=C(Nc1ccccc1)Nc1ccccc1	> 4 mM (inactive)
Cc1cc(NC(=O)c2cc(C)on2)no1	> 4 mM (inactive)
Cc1ccc2nc(SCCC#N)nc(C)c2c1	> 4 mM (inactive)
Oc1ccccc1-c1cc(C(F)(F)F)[nH]n1	> 4 mM (inactive)
C[C@@H]1O[C@@H](O[C@H]2[C@H](Oc3cc(O)c4c(=O)cc(-c5ccc(O)cc5)oc4c3)O[C@H](CO)[C@@H](O)[C@@H]2O)[C@H](O)[C@H](O)[C@H]1O	> 4 mM (inactive)
Cn1nc(C(=O)Nc2cccnc2)cc1Cl	> 4 mM (inactive)
O=C1CSC(=Nc2cc(Cl)ccc2Cl)N1	> 4 mM (inactive)
O=C(/C=C/C=C/c1ccc2c(c1)OCO2)N1CCCCC1	> 4 mM (inactive)

Compound	Kd
Cc1cc(C)c2ccc[n+]([O-])c2c1O	> 4 mM (inactive)
CN=C(c1ccc([N+](=O)[O-])cc1)N(C)C	> 4 mM (inactive)
O=c1c(-c2cc(O)c(O)c(O)c2)coc2cc(O)c(O)c(O)c12	> 4 mM (inactive)
c1ccc2c(c1)CN1CCCC1=N2	> 4 mM (inactive)
c1ccn(Cc2ccncc2)c1	> 4 mM (inactive)
CC1(C)CC23C(=O)CCC(O)C2(C)CCC13 (configuration not stated)	> 4 mM (inactive)
COc1cc2nc[nH]c(=O)c2cc1OC	> 4 mM (inactive)
NC1=NC(=O)/C(=C\c2ccco2)S1	> 4 mM (inactive)
CC(=O)CC1(O)C(=O)Nc2ccccc21 (configuration not stated)	> 4 mM (inactive)
CC(Sc1ncn[nH]1)C(=O)O (configuration not stated)	> 4 mM (inactive)
O=C(O)c1cn(-c2ccccc2)nc1-c1cccnc1	> 4 mM (inactive)
NC(=O)COc1ccccc1O	> 4 mM (inactive)
Cc1nn2c(-c3ccco3)nnc2c2ccccc12	> 4 mM (inactive)
CCOc1ccc(C(=O)c2ccncc2)cc1	> 4 mM (inactive)
CC(C)C(C)/C=C/C(C)C1CCC2C3=CC=C4CC(O)CCC4(C)C3CCC21C (configuration not stated)	> 4 mM (inactive)
CNc1nc(SC)nc(N2CCOCC2)n1	> 4 mM (inactive)
Nc1ccc(CN2CCOCC2)cc1	> 4 mM (inactive)
CCOC(=O)c1cc2ccccc2oc1=O	> 4 mM (inactive)
COc1ccccc1/C=C/CN1CCOCC1	> 4 mM (inactive)
O=C(O)c1cccc(CSc2ncccn2)c1	> 4 mM (inactive)
O=C(NCc1n[nH]c(=O)c2ccccc12)C1CC1	> 4 mM (inactive)
CC(=O)NC(C)(C)C1CC=C(C)/C(=N\O)C1 (configuration not stated)	> 4 mM (inactive)

Compound	Kd
Cc1sc2nc(C)n(NC(N)=O)c(=O)c2c1C	> 4 mM (inactive)
COc1ccc(CN2CCOCC2)c(C)c1C	> 4 mM (inactive)
Cc1cc(C(=O)NCc2cccs2)cs1	> 4 mM (inactive)
O=C(c1ccccc1F)N1CCN(c2ccccc2)CC1	> 4 mM (inactive)
COCc1cc(=O)oc2cc(N)ccc12	> 4 mM (inactive)
Cc1nnsc1C(=O)Nc1ccccn1	> 4 mM (inactive)
O=C(Nc1ccncc1)Nc1ccc(F)cc1F	> 4 mM (inactive)
O=C(/C=C/c1ccco1)NC1=NCCS1	> 4 mM (inactive)
O=C(Cc1c(F)cccc1Cl)Nc1cccnc1	> 4 mM (inactive)
Cc1ccc(N2C(=O)C3C4C=CC(O4)C3C2=O)cc1 (configuration not stated)	> 4 mM (inactive)
O=C(O)C1CCN(C(=O)c2cccs2)CC1	> 4 mM (inactive)
NC(=O)C1CCN(CN2C(=O)c3ccccc3C2=O)CC1	> 4 mM (inactive)
Cn1cnc2cc(NC(=O)c3ccco3)ccc21	> 4 mM (inactive)
CC(=O)NC12CC3CC(CC(O)(C3)C1)C2	> 4 mM (inactive)
O=c1c(Cl)c(NCCO)ncn1-c1ccccc1	> 4 mM (inactive)
NC(=NCCC[C@H](N)C(=O)O)NC(CCC(=O)O)C(=O)O (some centres not stated)	> 4 mM (inactive)
Cc1[nH]c2ccccc2c1CN(C)C	> 4 mM (inactive)
CC(=O)O[C@@H]1CC2C(C)(CC[C@H](O)C2(C)C)C2CC[C@]3(C)C(=CC(=O)O[C@H]3c3ccoc3)C21C (some centres not stated)	> 4 mM (inactive)
C=CC1=C(C)/C(=C/c2[nH]c(Cc3[nH]c(/C=C4\NC(=O)C(C)=C4C=C)c(C)c3CCC(=O)O)c(CCC(=O)O)c2C)NC1=O	> 4 mM (inactive)
CC(=O)Nc1ccc(N(C)C(C)=O)cc1	> 4 mM (inactive)
CC1(C)C=CC(=O)[C@@]2(C)C1CC(=O)[C@]1(C)C2CC[C@@]2(C)[C@H](c3ccoc3)OC(=O)C3OC321 (some centres not stated)	> 4 mM (inactive)
O=c1/c(=C\c2cccnc2)sc2nc3ccccc3n12	> 4 mM (inactive)

Compound	Kd
N#CCSc1nc2ccccc2c(=O)n1-c1ccccc1	> 4 mM (inactive)
Brc1cccc(-c2nnco2)c1	> 4 mM (inactive)
Cc1c(F)cccc1NS(=O)(=O)c1ccccc1C#N	> 4 mM (inactive)
CC(C)c1ccccc1NC(=O)c1cnccn1	> 4 mM (inactive)
COc1ccc2cc1Oc1ccc(cc1)C[C@H]1c3cc(c(OC)cc3CCN1C)Oc1c(OC)c(OC)cc3c1[C@H](C2)N(C)CC3	> 4 mM (inactive)
O=c1cnnc(N2CCCCC2)[nH]1	> 4 mM (inactive)
COc1ccc(-c2nnsc2N)cc1	> 4 mM (inactive)
COC(=O)C1CCN(c2ccc(Cl)nn2)CC1	> 4 mM (inactive)
COc1cccc2c(=O)n(CC(N)=O)ccc12	> 4 mM (inactive)
O=C(CS(=O)(=O)c1ccccc1)Nc1nccs1	> 4 mM (inactive)
CC1(C)Cc2nc3n[nH]c(N)c3cc2CO1	> 4 mM (inactive)
CCCOn1nnnc1-c1ccccc1	> 4 mM (inactive)
NC(=O)C1CCN(C(=O)c2ccco2)CC1	> 4 mM (inactive)
O=C(O)CC1NCCNC1=O (configuration not stated)	> 4 mM (inactive)
CC1=CCCC2C1(C)CCC(C)C2(C)CC/C(C)=C/C[n+]1cn(C)c2c(N)ncnc21 (configuration not stated)	> 4 mM (inactive)
CC1=CC2C(C(C)C)CCC(C)(O)C2CC1 (configuration not stated)	> 4 mM (inactive)
COC(=O)c1cccc(C(F)(F)F)c1	> 4 mM (inactive)
O=C(c1ncc[nH]1)c1ccccc1C(=O)N1CCOCC1	> 4 mM (inactive)
S=C(Nc1ccc2nccnc2c1)N1CCOCC1	> 4 mM (inactive)
Fc1ccc(Br)cc1/C=N/n1cnnc1	> 4 mM (inactive)
CC(=O)c1cccc(NC(=O)NN2CCOCC2)c1	> 4 mM (inactive)
